# Assay results published in US6159501A, “Modified release multiple-units dosage composition for release of opioid compounds” (Nycomed Danmark A/S, priority 1996, dated 2000).
# What was measured:
# [1] = Test 3 (PDMO-018): adverse events
# Experimental: Volunteers were asked to report any changes in normal health to the investigator. The investigator recorded in the CRFs the event, date and time for onset and cessation, frequency, severity, outcome, causality, classification and any action taken.
# Further a urine sample was screened for drug abuse and pregnancy test was performed for female volunteers. If negative drugs of abuse and pregnancy test the volunteers were challenged in the first period only with a direct i.v. injection of about 0.5 ml naloxone 0.4 mg/ml (Narcan®).
# [2] = cited from earlier work
compound,measurement,setting,value
O=C1CC[C@@]2(O)[C@H]3Cc4ccc(O)c5c4[C@@]2(CCN3CC2CC2)[C@H]1O5 [naltrexone],adverse events (number),[1],13 AEs
CN1CC[C@]23c4c5ccc(O)c4O[C@H]2[C@@H](O)C=C[C@H]3[C@H]1C5 [morphine],average duration of action for the first single dose,"[2]; 10 mg of oral, i.m. or s.c. morphine",4 to 5 h
CN1CC[C@]23c4c5ccc(O)c4O[C@H]2[C@@H](O[C@@H]2O[C@H](C(=O)O)[C@@H](O)[C@H](O)[C@H]2O)C=C[C@H]3[C@H]1C5 [morphine-6-glucuronide],"half-life, comparison",[2]; in vivo,longer half-life
